Laboratory results from patent publication US12263248B2, “Compounds and compositions for intracellular delivery of therapeutic agents” (ModernaTX, Inc., priority 2018, dated 2025).

Columns and labels:
[1] = system: luciferase (Luc) mRNA; experiment: Luc expression in liver, lung, spleen and femur 6 hours after intravenous administration; type: in vivo; settings: mice, 0.5 mpk; for Total Flux Liver / Total Flux Lung / Total Flux Spleen: intravenous
Experimental: The efficacy of the nanoparticle compositions presented in Table 1A was further evaluated by measuring the expression of modified luciferase in the liver, lung, spleen, and femur upon administration of a given composition. Formulations were administered intravenously to mice (n=3) at a dosage of 0.5 mpk and bioluminescence measured after 6 hours. The standard MC3 formulation and a PBS control were also tested. […] Flux in the liver was lowest for compositions including Compounds 58, 59, 137, and 141. Flux in the spleen was highest for compositions including Compounds 4, 7, 33, 34, 48, 53, 108, 129, 130, and 148, and lowest for compositions including Compounds 9, 59, 124, and 141.
(§1) Whole body and ex vivo organ bioluminescent imaging of mice: CD-1 mice were injected 15 minutes prior to the imaging timepoint intraperitoneally (IP) with 200 μL Xenolight D-luciferin K+ salt, diluted in PBS just prior to use to a concentration of 15 mg/mL. Ex vivo imaging of organs was completed within 25 minutes of luciferin administration. All images were quantified by region of interest for total flux.

[2] = Apparent (surface) pKa of the LNP formulation (TNS assay); type: physicochemical; settings: Table 1A
Experimental: Using sodium hydroxide (1 M) and hydrochloric acid (1 M), 21 unique buffers were prepared from the master buffer stock at pH values between about 3 and 12. Next, a stock of 300 μM 6-(p-Toluidino)-2-naphthalenesulfonic acid sodium salt (TNS reagent) in DMSO was prepared and the LNP was mixed with the desired formulation buffer at a concentration of 0.04 mg/mL mRNA. This assay has been validated in 1× PBS and 20 mM Tris w/8% sucrose buffer. The buffer solutions at various pH values were added to a 96-well plate in triplicate for each pH. To each well was added 3.26 μL of LNP sample at a mRNA concentration of 0.04 mg/mL and 2.0 μL of 300 μM TNS reagent solution. After careful mixing, the resulting fluorescence values were read for each plate to create a sigmoidal plot of the fluorescence values vs. buffer pH. The […] inflection point of this curve is the apparent pKa of the LNP formulation.

[3] = Particle size and polydispersity index of nanoparticle compositions (Zetasizer Nano ZS); type: physicochemical; settings: Table 1A; for Size (nm): lipid:DSPC:cholesterol:PEG-DMG 50:10:38.5:1.5 mol %
Experimental: A Zetasizer Nano ZS (Malvern Instruments Ltd, Malvern, Worcestershire, UK) can be used to determine the particle size, the polydispersity index (PDI) and the zeta potential of the nanoparticle compositions in 1×PBS in determining particle size and 15 mM PBS in determining zeta potential.

[4] = system: luciferase (Luc) mRNA; experiment: Luc expression, whole body bioluminescence after intravenous administration to mice; type: in vivo; settings: for Lipid/MC3 AUC / AUC (p/s * h): Table 3D, intravenous; for Total Flux 3 hours / Total Flux 6 hours / Total Flux 24 hours: Luc mRNA
Experimental: In order to monitor how effectively various nanoparticle compositions deliver therapeutic and/or prophylactics to targeted cells, different nanoparticle compositions including a particular therapeutic and/or prophylactic (for example, a modified or naturally occurring RNA such as an mRNA) are prepared and administered to rodent populations. Mice are intravenously, intramuscularly, intraarterially, or intratumorally administered a single dose including a nanoparticle composition with a formulation such as those provided in Example 3. In some instances, mice may be made to inhale doses. Dose sizes may range from 0.001 mg/kg to 10 mg/kg, where 10 mg/kg describes a dose including 10 mg of a therapeutic and/or prophylactic in a nanoparticle composition for each 1 kg of body mass of the mouse. A control composition including PBS may also be employed.
Upon administration of nanoparticle compositions to mice, dose delivery profiles, dose responses, and toxicity of particular formulations and doses thereof can be measured by enzyme-linked immunosorbent assays (ELISA), bioluminescent imaging, or other methods. For nanoparticle compositions including mRNA, time courses of protein expression can also be evaluated. Samples collected from the rodents for evaluation may include blood, sera, and tissue (for example, muscle tissue from the site of an intramuscular injection and internal tissue); sample collection may involve sacrifice of the animals.
The efficacy of the nanoparticle compositions presented in Table 1A was evaluated with a bioluminescence study. Formulations were administered intravenously to mice (n=6) at a dosage of 0.5 mg/kg (mpk) and bioluminescence measured at 3, 6, and 24 hour time points. The standard MC3 formulation and, in some instances, a control (e.g., a PBS control) were evaluated for comparison. […] In general, flux decreased as time progressed to less than 10% of the initial flux.
as §1

[5] = Encapsulation efficiency of RNA (QUANT-IT RIBOGREEN RNA assay); type: physicochemical; settings: Table 1A
Experimental: For nanoparticle compositions including an RNA, a QUANT-IT™ RIBOGREEN® RNA assay (Invitrogen Corporation Carlsbad, CA) can be used to evaluate the encapsulation of an RNA by the nanoparticle composition. The samples are diluted to a concentration of approximately […] in a TE buffer solution (10 mM Tris-HCl, 1 mM EDTA, pH 7.5). 50 μL of the diluted samples are transferred to a polystyrene 96 well plate and either 50 μL of TE buffer or 50 μL of a 2% Triton X-100 solution is added to the wells. The plate is incubated at a temperature of 37° C. for 15 minutes. The RIBOGREEN® reagent is diluted 1:100 in TE buffer, and 100 μL of this solution is added to each well. The fluorescence intensity can be measured using a fluorescence plate reader (Wallac Victor 1420 Multilabel Counter; Perkin Elmer, Waltham, MA) at an excitation wavelength of, for example, about 480 nm and an emission wavelength of, for example, about 520 nm. The fluorescence values of the reagent blank are subtracted from that of each of the samples and the percentage of free RNA is determined by dividing the fluorescence intensity of the intact sample (without addition of Triton X-100) by the fluorescence value of the disrupted sample (caused by the addition of Triton X-100).

SMILES | pKa [2] | PDI [3] | Size (nm) [3] [nm] | EE (%) [5] [%] | Total Flux Liver [1] | Total Flux Lung [1] | Total Flux Spleen [1] | Lipid/MC3 AUC [4] | AUC (p/s * h) ([4]; Luc) | Total Flux 3 hours ([4]; mice, i.v., 0.5 mg/kg) | Total Flux 6 hours ([4]; mice, i.v., 0.5 mg/kg) | Total Flux 24 hours ([4]; mice, i.v., 0.5 mg/kg) | flux at all timepoints measured ([4]; mice, i.v., 0.5 mg/kg, 3, 6 and 24 hour, in words) | Flux in the spleen ([1]; i.v., in words) | Fold increase in total body Luc Flux relative to MC3 at 6 h ([4]; Table 3A, i.v. administration) | 6 h Lipid/MC3 Avg. Luc Expression ([4]; Table 3C, i.v. administration) | Fold increase AUC Lipid/MC3 ([4]; Table 3C, i.v. administration) | AUC (h * p/s) ([4]; Table 3C, i.v. administration, Luc)
CCCCCCCCCOC(=O)CCCCCCCN(CCO)CCCCCCCC(=O)OC(CCC)CCCCCCCC (centres unmarked) [Compound 34, dodecan-4-yl 8-((2-hydroxyethyl)(8-(nonyloxy)-8-oxooctyl)amino) octanoate] | 6.64 | 0.14 | 133.8 | 92.52 | 2.08E+09 | 9.49E+06 | 2.40E+08 | – | – | 1.06E+10 | 1.48E+10 | 6.69E+08 | – | highest | 0.34 | – | – | –
CCCCCCCCCOC(=O)CCCCCCCN(CCO)CCCCCCCC(=O)OC1CCCCCCCCCCCCCC1 [Compound 81, Cyclopentadecyl 8-((2-hydroxyethyl)(8-(nonyloxy)-8-oxooctyl)amino)octanoate] | 7.14 | 0.14 | 99.2 | 95.4 | 2.74E+08 | 6.23E+06 | 4.49E+07 | – | – | 7.87E+09 | 9.96E+09 | 5.13E+08 | – | – | – | – | – | –
CCCCCCCCCOC(=O)CCCCCCCN(CCCCCCCC(=O)OC(CCCCCCCC)CCCCCCCC)CCCn1cnc2c(N)ncnc21 [Compound 116, Heptadecan-9-yl 8-((3-(6-amino-9H-purin-9-yl)propyl)(8-(nonyloxy)-8-oxooctyl)amino)octanoate] | 5.66 | 0.14 | 63.3 | 99.4 | – | – | – | – | – | 3.13E+07 | 3.86E+07 | – | – | – | – | – | – | –
CCCCCCCCCOC(=O)CCCCCCCN(CCCCCCCC(=O)OC(CCCCCCCC)CCCCCCCC)Cc1ccccc1 [Compound 94, Heptadecan-9-yl 8-(benzyl(8-(nonyloxy)-8-oxooctyl)amino)octanoate] | 4.43 | 0.24 | 62.4 | 0 | – | – | – | – | – | – | – | – | – | – | – | – | – | –
CCCCCCCCCOC(=O)CCCCCCCN(CCCCCCCC(=O)OC(CCCCCCCC)CCCCCCCC)CCCNC(=O)CO [Compound 198, Heptadecan-9-yl 8-((3-(2-hydroxyacetamido)propyl)(8-(nonyloxy)-8-oxooctyl)amino)octanoate] | 7.62 | 0.24 | 84.2 | 99.5 | – | – | – | – | – | – | – | – | – | – | – | – | – | –
CCCCCCCCCOC(=O)CCCCCCCN(CCO)CCCCCCCC(=O)Oc1ccc(CCCCC)cc1 [Compound 119, Nonyl 8-((2-hydroxyethyl)(8-oxo-8-(4-pentylphenoxy)octyl)amino)octanoate] | 5.29 | 0.24 | 60.8 | 98.1 | – | – | – | – | – | 1.02E+07 | 3.74E+07 | – | – | – | – | – | – | –
CCCCCCCCCOC(=O)CCCCCCCN(CCCCCCCC(=O)OC(CCCCCCCC)CCCCCCCC)CCCNC(=O)OC [Compound 181, Heptadecan-9-yl 8-((3-((methoxycarbonyl)amino)propyl)(8-(nonyloxy)-8-oxooctyl)amino)octanoate] | 6.17 | 0.12 | 78.7 | 88.9 | – | – | – | – | – | – | – | – | – | – | – | – | – | –

The next lines start with results.

pKa [2] | PDI [3] | Size (nm) [3] [nm] | EE (%) [5] [%] | SMILES | Total Flux Liver [1] | Total Flux Lung [1] | Total Flux Spleen [1] | Lipid/MC3 AUC [4] | AUC (p/s * h) ([4]; Luc) | Total Flux 3 hours ([4]; mice, i.v., 0.5 mg/kg) | Total Flux 6 hours ([4]; mice, i.v., 0.5 mg/kg) | Total Flux 24 hours ([4]; mice, i.v., 0.5 mg/kg) | flux at all timepoints measured ([4]; mice, i.v., 0.5 mg/kg, 3, 6 and 24 hour, in words) | Flux in the spleen ([1]; i.v., in words) | Fold increase in total body Luc Flux relative to MC3 at 6 h ([4]; Table 3A, i.v. administration) | 6 h Lipid/MC3 Avg. Luc Expression ([4]; Table 3C, i.v. administration) | Fold increase AUC Lipid/MC3 ([4]; Table 3C, i.v. administration) | AUC (h * p/s) ([4]; Table 3C, i.v. administration, Luc)
6.953 | 0.080 | 251.8 | 35.70 | CCCCCCCCCOC(=O)CCCCCCCN(CCO)CCCCCCCC(=O)OC(C)(C)C [Compound 158, tert-Butyl 8-((2-hydroxyethyl)(8-(nonyloxy)-8-oxooctyl)amino)octanoate] | 1.99E+05 | 1.71E+04 | 1.17E+05 | <0.01 | 1.211E+007 | 2.69E+05 | 9.82E+05 | 1.55E+05 | significantly lower flux | – | – | – | – | –
4.802 | 0.74 | 55 | 0 | CCCCCCCCCOC(=O)CCCCCCCN(CCCCCCCC(=O)OC(CCCCCCCC)CCCCCCCC)CCCC(F)(F)F [Compound 107] | – | – | – | – | – | – | – | – | – | – | – | – | – | –
7.873 | 0.190 | 75.9 | 99.29 | CCCCCCCCCOC(=O)CCCCCCCN(CCO)CCN(CCO)CCCCCCCC(=O)OC(CCCCCCCC)CCCCCCCC [Compound 159, Heptadecan-9-yl 8-((2-hydroxyethyl)(2-((2-hydroxyethyl)(8-(nonyloxy)-8-oxooctyl)amino)ethyl)amino)octanoate] | 1.13E+06 | 2.17E+05 | 7.24E+05 | <0.01 | 1.355E+008 | 3.32E+06 | 1.20E+07 | 4.98E+05 | – | – | – | – | – | –
6.66 | 0.110 | 85.6 | 94.62 | CCCCCCCCCOC(=O)CCCCCCCN(CCO)CCCCCCCCCOC(=O)C(CCCCCC)CCCCCCCC (centres unmarked) [Compound 134, 9-((2-Hydroxyethyl)(8-(nonyloxy)-8-oxooctyl)amino)nonyl 2-hexyldecanoate] | 1.73E+09 | 2.82E+06 | 1.85E+07 | – | – | 2.01E+10 | 2.91E+10 | 8.00E+08 | – | – | – | 3.99 | 4.16 | 3.43E+11
6.16 | 0.11 | 71.6 | 94.7 | CCCCCCCCCOC(=O)CCCCCCCN(CCCCCCCC(=O)OC(CCCCCCCC)CCCCCCCC)CCCn1ccnn1 [Compound 179, Heptadecan-9-yl 8-((3-(1H-1,2,3-triazol-1-yl)propyl)(8-(nonyloxy)-8-oxooctyl)amino)octanoate] | – | – | – | – | – | – | – | – | – | – | – | – | – | –
